The source of these data is patent publication US20180057507A1, “INHIBITORS OF DUAL LEUCINE ZIPPER (DLK) KINASE FOR THE TREATMENT OF DISEASE” (Board of Regents, The University of Texas System, priority 2016, published 2018).

The assay deals with T1, human DLK (Homo sapiens, UniProt Q12852).
T1 sequence (Q12852 1-859): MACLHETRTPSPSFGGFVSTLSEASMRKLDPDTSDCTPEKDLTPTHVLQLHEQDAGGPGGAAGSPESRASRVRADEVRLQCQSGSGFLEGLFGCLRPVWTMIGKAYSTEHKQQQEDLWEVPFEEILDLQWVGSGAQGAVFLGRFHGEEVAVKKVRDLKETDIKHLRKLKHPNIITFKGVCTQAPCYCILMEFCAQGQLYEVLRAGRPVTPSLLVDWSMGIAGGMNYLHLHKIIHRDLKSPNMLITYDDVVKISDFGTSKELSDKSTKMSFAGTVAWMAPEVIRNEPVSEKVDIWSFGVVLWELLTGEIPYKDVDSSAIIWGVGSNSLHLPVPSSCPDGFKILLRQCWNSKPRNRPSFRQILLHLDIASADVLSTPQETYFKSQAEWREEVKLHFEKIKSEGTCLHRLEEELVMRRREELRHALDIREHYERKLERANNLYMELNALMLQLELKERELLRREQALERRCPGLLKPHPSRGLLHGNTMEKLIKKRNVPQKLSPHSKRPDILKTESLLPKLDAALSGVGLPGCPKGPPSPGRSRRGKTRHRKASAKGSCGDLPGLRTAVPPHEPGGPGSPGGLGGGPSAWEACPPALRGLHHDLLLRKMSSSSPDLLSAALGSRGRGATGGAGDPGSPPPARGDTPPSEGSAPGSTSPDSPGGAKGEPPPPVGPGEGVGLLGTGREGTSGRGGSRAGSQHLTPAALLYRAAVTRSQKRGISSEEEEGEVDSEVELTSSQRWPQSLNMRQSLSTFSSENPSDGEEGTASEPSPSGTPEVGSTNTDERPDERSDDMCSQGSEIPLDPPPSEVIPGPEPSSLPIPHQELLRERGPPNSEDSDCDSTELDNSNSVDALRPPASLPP
Kind of assay: DLK Kd Determinations (KINOMEscan KdELECT, DiscoveRx). Details: full length of human DLK (amino acids 1-859); host or cells: transiently transfected HEK293 cells; unpurified extract. As to conditions: fusion protein of full length human DLK (amino acids 1-859) and NFkB DNA binding domain; qPCR readout; duplicate. How it is done: The DLK dissociation constants (Kd) have been determined in the KINOMEscan KdELECT Service at DiscoveRx.
A fusion protein of full length of human DLK (amino acids 1-859) and the DNA binding domain of NFkB was expressed in transiently transfected HEK293 cells. From these HEK 293 cells, extracts were prepared in M-PER extraction buffer (Pierce) in the presence of Protease Inhibitor Cocktail Complete (Roche) and Phosphatase Inhibitor Cocktail Set II (Merck) per manufacturers' instructions. The DLK fusion protein was labeled with a chimeric double-stranded DNA tag containing the NFkB binding site (5′-GGGAATTCCC-3′) fused to an amplicon for qPCR readout, which was added directly to the expression extract (the final concentration of DNA-tag in the binding reaction is 0.1 nM).
Streptavidin-coated magnetic beads (Dynal M280) were treated with a biotinylated small molecule ligand for 30 minutes at room temperature to generate affinity resins the binding assays. The liganded beads were blocked with excess biotin and washed with blocking buffer (SeaBlock (Pierce), 1% BSA, 0.05% Tween 20, 1 mM DTT) to remove unbound ligand and to reduce nonspecific binding.
Extracts were used directly in binding assays without any enzyme purification steps at a ≧10,000-fold overall stock dilution (final DNA-tagged enzyme concentration <0.1 nM). Extracts were loaded with DNA-tag and diluted into the binding reaction in a two step process. First extracts were diluted 1:100 in 1× binding buffer (PBS/0.05% Tween 20/10 mM DTT/0.1% BSA/2 μg/ml sonicated salmon sperm DNA) containing 10 nM DNA-tag. This dilution was allowed to equilibrate at room temperature for 15 minutes and then subsequently diluted 1:100 in 1× binding buffer. Test compounds were prepared as 111× stocks in 100% DMSO. Kds were determined using an 11-point 3-fold compound dilution series with three DMSO control points. All compounds for Kd measurements are distributed by acoustic transfer (non-contact dispensing) in 100% DMSO. The compounds were then diluted directly into the assays such that the final concentration of DMSO was 0.9%. All reactions performed in polypropylene 384-well plates. Each was a final volume of 0.02 mL. Assays were incubated with shaking for 1 hour at room temperature. Then the beads were pelleted and washed with wash buffer (1×PBS, 0.05% Tween 20) to remove displaced kinase and test compound. The washed based were re-suspended in elution buffer (1×PBS, 0.05% Tween 20, 0.5 μM non-biotinylated affinity ligand) and incubated at room temperature with shaking for 30 minutes. The kinase concentration in the eluates was measured by qPCR. qPCR reactions were assembled by adding 2.5 μL of kinase eluate to 7.5 μL of qPCR master mix containing 0.15 μM amplicon primers and 0.15 μM amplicon probe. The qPCR protocol consisted of a 10 minute hot start at 95° C., followed by 35 cycles of 95° C. for 15 seconds, 60° C. for 1 minute.
Test compounds were prepared as 111× stocks in 100% DMSO. Kds were determined using an 11-point 3-fold compound dilution series with three DMSO control points. All compounds for Kd measurements are distributed by acoustic transfer (non-contact dispensing) in 100% DMSO. The compounds were then diluted directly into the assays such that the final concentration of DMSO was 0.9%. The Kds were determined using a compound top concentration of 30,000 nM. Kd measurements were performed in duplicate.
Binding constants (Kds) were calculated with a standard dose-response curve using the Hill equation: […]
The Hill Slope was set to −1. Curves were fitted using a non-linear least square fit with the Levenberg-Marquardt algorithm (Levenberg, K., A method for the solution of certain non-linear problems in least squares, Q. Appl. Math. 2, 164-168 (1944)). See also Fabian, M. A. et al. A small molecule-kinase interaction map for clinical kinase inhibitors. Nat. Biotechnol. […]
(Quantitative PCR measures a nucleic acid by following its amplification.)

The Kd is the equilibrium constant for the complex coming apart. In turn, `CC(C)c1nc(-c2cnc(N)c(C(F)(F)F)c2)cn1[C@H]1[C@@H]2CC(N3CCOCC3)C[C@@H]21` (mixture of isomers) [Example 3, 5-(2-isopropyl-1-((1R,5S,6r)-3-morpholinobicyclo[3.1.0]hexan-6-yl)-1H-imidazol-4-yl)-3-(trifluoromethyl)pyridin-2-amine] had a Kd of 51 nM.

`Nc1ncc(-c2cn(CC3CC3)c([C@H]3[C@@H]4CN(C5COC5)C[C@@H]43)n2)cc1C(F)(F)F` [Example 1, 5-(1-(cyclopropylmethyl)-2-((1R,5S,6r)-3-(oxetan-3-yl)-3-azabicyclo[3.1.0]hexan-6-yl)-1H-imidazol-4-yl)-3-(trifluoromethyl)pyridin-2-amine] registered a Kd of 140 nM. `CC1OCCn2cc(-c3cnc(N)c(C(F)(F)F)c3)nc21` (centres unmarked) [Example 5, 5-(8-methyl-6,8-dihydro-5H-imidazo[2,1-c][1,4]oxazin-2-yl)-3-(trifluoromethyl)pyridin-2-amine] came in with a Kd of 3300 nM. As for `CC(C)n1cc(-c2cnc(N)c(C(F)(F)F)c2)nc1C1CC1` [Example 8, 5-[2-cyclopropyl-1-(propan-2-yl)-1H-imidazol-4-yl]-3-(trifluoromethyl)pyridin-2-amine], the Kd was 130 nM. This Kd lies about 25-fold lower than the previous one.

In turn, `Nc1ncc(-c2cn(C3CC3)c(C3CC3)n2)cc1C(F)(F)F` [Example 9, 5-(1,2-dicyclopropyl-1H-imidazol-4-yl)-3-(trifluoromethyl)pyridin-2-amine] registered a Kd of 240 nM. The value for `Nc1ncc(-c2cn3c(n2)COCC3)cc1C(F)(F)F` [Example 10, 5-(5,6-dihydro-8H-imidazo[2,1-c][1,4]oxazin-2-yl)-3-(trifluoromethyl)pyridin-2-amine] was 840 nM; that for `CC(C)c1nc(-c2cnc(N)c(C(F)(F)F)c2)cn1[C@H]1[C@@H]2CNC[C@@H]21` [Example 11, 5-(1-(3-azabicyclo[3.1.0]hexan-6-yl)-2-isopropyl-1H-imidazol-4-yl)-3-(trifluoromethyl)pyridin-2-amine] was 120 nM; that for `CC(C)c1nc(-c2cnc(N)c(C(F)(F)F)c2)cn1[C@H]1[C@@H]2CN(C3COC3)C[C@@H]21` [Example 12, 5-(2-isopropyl-1-((1R,5S,6s)-3-(oxetan-3-yl)-3-azabicyclo[3.1.0]hexan-6-yl)-1H-imidazol-4-yl)-3-(trifluoromethyl)pyridin-2-amine] was 47 nM. The value for `CC(C)c1nc(-c2cnc(N)c(C(F)(F)F)c2)cn1[C@H]1[C@@H]2CN(C3CCOCC3)C[C@@H]21` [Example 13, 5-(2-isopropyl-1-((1R,5S,6s)-3-(tetrahydro-2H-pyran-4-yl)-3-azabicyclo[3.1.0]hexan-6-yl)-1H-imidazol-4-yl)-3-(trifluoromethyl)pyridin-2-amine] was 78 nM; that for `CC(=O)N1C[C@@H]2[C@H](C1)[C@H]2n1cc(-c2cnc(N)c(C(F)(F)F)c2)nc1C(C)C` [Example 14, 1-(6-(4-(6-amino-5-(trifluoromethyl)pyridin-3-yl)-2-isopropyl-1H-imidazol-1-yl)-3-azabicyclo[3.1.0]hexan-3-yl)ethan-1-one] was 170 nM; that for `COCCN1C[C@@H]2[C@H](C1)[C@H]2n1cc(-c2cnc(N)c(C(F)(F)F)c2)nc1C(C)C` [Example 15, 5-(2-isopropyl-1-((1R,5S,6s)-3-(2-methoxyethyl)-3-azabicyclo[3.1.0]hexan-6-yl)-1H-imidazol-4-yl)-3-(trifluoromethyl)pyridin-2-amine] was 210 nM. The value for `CC(C)c1nc(-c2cnc(N)c(C(F)(F)F)c2)cn1[C@H]1[C@@H]2CN(CCF)C[C@@H]21` [Example 16, 5-(1-((1R,5S,6s)-3-(2-fluoroethyl)-3-azabicyclo[3.1.0]hexan-6-yl)-2-isopropyl-1H-imidazol-4-yl)-3-(trifluoromethyl)pyridin-2-amine] was 68 nM.

In turn, `CC(C)c1nc(-c2cnc(N)c(C(F)(F)F)c2)cn1[C@H]1[C@@H]2CN(CC(F)F)C[C@@H]21` [Example 17, 5-(1-((1R,5S,6s)-3-(2,2-difluoroethyl)-3-azabicyclo[3.1.0]hexan-6-yl)-2-isopropyl-1H-imidazol-4-yl)-3-(trifluoromethyl)pyridin-2-amine] had a Kd of 170 nM. The value for `CC(C)c1nc(-c2cnc(N)c(C(F)(F)F)c2)cn1[C@H]1[C@@H]2CN(CC(F)(F)F)C[C@@H]21` [Example 18, 5-(2-isopropyl-1-((1R,5S,6s)-3-(2,2,2-trifluoroethyl)-3-azabicyclo[3.1.0]hexan-6-yl)-1H-imidazol-4-yl)-3-(trifluoromethyl)pyridin-2-amine] was 720 nM; that for `CC(C)c1nc(-c2cnc(N)c(C(F)(F)F)c2)cn1C` [Example 21, 5-(2-isopropyl-1-methyl-1H-imidazol-4-yl)-3-(trifluoromethyl)pyridin-2-amine] was 640 nM. The value for `CC(C)c1nc(-c2cnc(N)c(C(F)(F)F)c2)cn1C1CC2(COC2)C1` [Example 23, 5-(2-isopropyl-1-(2-oxaspiro[3.3]heptan-6-yl)-1H-imidazol-4-yl)-3-(trifluoromethyl)pyridin-2-amine] was 220 nM; that for `CC(C)c1nc(-c2cnc(N)c(C(F)(F)F)c2)cn1[C@H]1C[C@@H](F)C1` [Example 24, 5-(1-((1s,3s)-3-fluorocyclobutyl)-2-isopropyl-1H-imidazol-4-yl)-3-(trifluoromethyl)pyridin-2-amine] was 240 nM; that for `CC(C)c1nc(-c2cnc(N)c(C(F)(F)F)c2)cn1[C@H]1C[C@H](F)C1` [Example 25, 5-(1-((1r,3r)-3-fluorocyclobutyl)-2-isopropyl-1H-imidazol-4-yl)-3-(trifluoromethyl)pyridin-2-amine] was 200 nM.

`CC(C)c1nc(-c2cnc(N)c(C(F)(F)F)c2)cn1C1CC(F)(F)C1` [Example 26, 5-(1-(3,3-difluorocyclobutyl)-2-isopropyl-1H-imidazol-4-yl)-3-(trifluoromethyl)pyridin-2-amine]: the Kd is 400 nM.

For `CC(C)c1nc(-c2cnc(N)c(C(F)(F)F)c2)cn1C1CN(C2COC2)C1` [Example 27, 5-(2-isopropyl-1-(1-(oxetan-3-yl)azetidin-3-yl)-1H-imidazol-4-yl)-3-(trifluoromethyl)pyridin-2-amine], binding was put at a Kd of 270 nM.
